We go through 23 compounds from ChEMBL document CHEMBL1201862, “PubChem BioAssay data set” (2004).

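1) Cells in 96-well plates. 2) Compound, 48 h, 5 concentrations. 3) Linear interpolation between surrounding doses. 4) Unreached endpoint = highest concentration. GI50 marks 50% less growth.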 Calls of active or inactive are those of the source. No stated cut-off is given here; in the data, active = GI50 up to about 1.1 µM and inactive = higher.

Common to all, as to assay: NCI-60 cell line screen, 48 h
For experiment [1], the system named is XF498.
In experiment [2] the test system is DMS-273.
Experiment [3] relates to KM-20L2.
The subject of experiment [4] is M19-MEL.
Experiment [5] concerns RXF 631.
Experiment [6] has as its system DMS-114.
For experiment [7], the system named is LXFL 529.
For experiment [8], the system named is SNB-78.
In experiment [9] the test system is HOP-18.

Consider `CN(O)C(=O)c1ccccc1`, for which the GI50 in experiment [1], in experiment [2], in experiment [3], in [4], in [5] and in experiment [6] was > 100 µM (inactive) in each case. Also, in experiment [7], the GI50 was > 100 µM (inactive).
As for `CC[N+]1(C)CCC(O)(c2ccc(OC)cc2)C(C(=O)c2ccc(OC)cc2)C1` (stereo not drawn), the GI50 was 11 µM (inactive) in [1]; 19 µM (inactive) in experiment [2]; 21.9 µM (inactive) in experiment [3]; 20.5 µM (inactive) in experiment [4]; 18.5 µM (inactive) in [5]; 19.9 µM (inactive) in [6]. The GI50 in experiment [7] is 3.49 µM (inactive); in experiment [8], 14.8 µM (inactive); in experiment [9], 14.7 µM (inactive).
Take `COc1ccc(-c2nc(SC)n(C3OC(COC(C)=O)C(OC(C)=O)C(OC(C)=O)C3OC(C)=O)c(=O)c2C#N)cc1` (stereo not drawn): the GI50 in [3] is 95.5 µM (inactive); in experiment [7], 35.2 µM (inactive); in experiment [8], 21 µM (inactive).
In the case of `COc1ccc(-c2onc(-c3ccc([N+](=O)[O-])cc3)c2C2=NCCCN2)cc1`, the GI50 in [1] is > 100 µM (inactive); in experiment [3], 44.3 µM (inactive); in [4] it was > 100 µM (inactive); in experiment [7], > 100 µM (inactive); in experiment [8], > 100 µM (inactive); in experiment [9] it was 3.4 µM (inactive).
With `O=C(O)Cc1cc(=O)[nH]c2c1/C(=N/O)CCC2`, the GI50 in [1], in experiment [7] and in [9] was > 100 µM (inactive) in each case.
Regarding `Cc1cc2nc3c(=O)n(C)c(=O)nc-3n(-c3ccc(Cl)cc3)c2cc1C`, the GI50 was 1.29 µM (inactive) in experiment [1]; 5.62 µM (inactive) in [2]; 3.62 µM (inactive) in experiment [3]; 2.32 µM (inactive) in [4]; 3.1 µM (inactive) in experiment [6]; 14 µM (inactive) in [7]. Also, the results for the GI50 in experiment [8] and in [9] were 18.5 µM (inactive) and 6.87 µM (inactive), respectively.
Turning to `CCOC(=O)c1sc(Nc2cc(Cl)ccc2Cl)nc1C`, the GI50 in experiment [1] was 48.4 µM (inactive); in experiment [3] it was 54.7 µM (inactive); in [4], > 100 µM (inactive); in experiment [5], > 100 µM (inactive); in [6] it was 93.3 µM (inactive); in experiment [7], 91.4 µM (inactive). Further, the GI50 in [8] and in [9] was > 100 µM (inactive) in each case.
With `C=C1C2Oc3ccccc3C1N(c1ccccc1)O2` (stereo not drawn), the GI50 in experiment [1] is 17.4 µM (inactive); in [2] it was > 10 µM (inactive); in experiment [3], 37.6 µM (inactive); in experiment [4] it was 42.7 µM (inactive); in experiment [5], 16 µM (inactive); in [6], 23.3 µM (inactive). Further, in [7], the GI50 was 35.2 µM (inactive).
With `Nc1ccn(C2OC(CO)C(O)C2O)c(=O)n1` (stereo not drawn), the GI50 in [1] is 434 µM (inactive); in [2] it was 1.74 µM (inactive); in [3], 64 µM (inactive); in experiment [4] it was 6.43 µM (inactive); in experiment [6], 0.173 µM (active); in experiment [7], > 443 µM (inactive).
`CCCCCCCCCCNC(=S)OC`: the GI50 in experiment [2] is 51.5 µM (inactive); in experiment [3], 32.7 µM (inactive); in experiment [4] it was 29 µM (inactive); in experiment [5] it was 62.1 µM (inactive); in [6], 15.6 µM (inactive); in experiment [7], 33.7 µM (inactive). The GI50 in [8] is 53.3 µM (inactive); in [9] it was > 100 µM (inactive).
With `Cc1ccc(C)c(N2C(=O)C(=O)C(c3nc4ccccc4o3)/C(=N\NC(=O)c3ccccc3O)C2=O)c1` (stereo not drawn), the GI50 was 6.14 µM (inactive) in [2]; 41.1 µM (inactive) in [3]; 64.7 µM (inactive) in experiment [4]; 20.1 µM (inactive) in experiment [6]; 31.8 µM (inactive) in experiment [7]; 6.08 µM (inactive) in experiment [8]. In addition, the GI50 in experiment [9] was 20.9 µM (inactive).
For the compound `Cc1cc(N(CCC#N)CCC#N)ccc1/C=C1/N=C(c2ccccc2)N(N)C1=O`, the GI50 was > 100 µM (inactive) in [1]; 89.1 µM (inactive) in [2]; > 100 µM (inactive) in experiment [3]; > 100 µM (inactive) in experiment [4]; 75 µM (inactive) in experiment [6]; > 100 µM (inactive) in experiment [7].
`CCN(CC)CCCNC(=O)C1COc2cc(-c3cc(=O)c4ccccc4o3)ccc2O1` (stereo not drawn): the GI50 in experiment [2] is 65.5 µM (inactive); in experiment [3], 34.8 µM (inactive); in experiment [4], 20.9 µM (inactive); in experiment [5] it was 34.4 µM (inactive); in experiment [6] it was 25.4 µM (inactive); in [7], 53 µM (inactive). Also, the GI50 in [8] and in experiment [9] was > 100 µM (inactive) each time.
On to `O=C(O)/C(Cl)=C(\Cl)C(=O)c1ccccc1`, for which the GI50 in experiment [1], in experiment [2], in experiment [3], in experiment [4], in experiment [6] and in experiment [7] was > 100 µM (inactive) in each case. For the same compound, the GI50 in [8] is > 100 µM (inactive).
In the case of `Cc1ccc([N+](=O)[O-])cc1NC(=O)C(=O)Cc1occc(=O)c1O`, the GI50 in experiment [1], in experiment [3], in [4], in experiment [6] and in experiment [9] was > 100 µM (inactive) in each case.
`CC(=O)c1cc([N+](=O)[O-])ccc1OCC(=O)O`: the GI50 in experiment [2], in experiment [3], in [4], in [5], in experiment [6] and in [7] was > 100 µM (inactive) in each case. Further, the GI50 in experiment [8] is > 100 µM (inactive).
Turning to `CCOc1ccc2nc(NC(=O)C(=O)C(C(=O)c3ccccc3-c3ccccc3)C3OC(=O)c4ccccc43)sc2c1` (stereo not drawn), the GI50 in [1] is 21.3 µM (inactive); in experiment [2] it was 23.1 µM (inactive); in [3], 22.4 µM (inactive); in experiment [4], 19.1 µM (inactive); in experiment [6], 14.8 µM (inactive); in experiment [7], 17.4 µM (inactive). Moreover, the GI50 in experiment [8] is 18.6 µM (inactive).
Take `O=C1OC(c2ccccc2)(c2ccccc2)c2ccc3ccc(F)cc3c21`: the GI50 in [1] was > 100 µM (inactive); in experiment [2], 7.21 µM (inactive); in [3] it was 21.8 µM (inactive); in [4], 20.7 µM (inactive); in experiment [5], 51.4 µM (inactive); in [6] it was 9.23 µM (inactive). Besides, the GI50 in experiment [7] was > 100 µM (inactive).
`CC(C)c1cccc2sc(NC(=O)C(=O)CC(=O)c3ccc(F)cc3)nc12`: the GI50 in experiment [1], in experiment [2], in [3], in experiment [4], in experiment [5] and in experiment [6] was > 100 µM (inactive) throughout. The GI50 in experiment [7] and in experiment [8] was > 100 µM (inactive) throughout.
With `CC1=C(C(=O)NCc2ccccc2)C(c2ccc(C3C(C(=O)NCc4ccccc4)=C(C)NC(C)=C3C(=O)NCc3ccccc3)cc2)C(C(=O)NCc2ccccc2)=C(C)N1`, the GI50 in [1] is 14.9 µM (inactive); in experiment [2], 9.42 µM (inactive); in [3], 13.9 µM (inactive); in experiment [4] it was 8.39 µM (inactive); in experiment [6], 12.6 µM (inactive); in experiment [7] it was 4.58 µM (inactive). Moreover, the GI50 in [8] is 9.46 µM (inactive); in experiment [9] it was 37.5 µM (inactive).
Regarding `CC(Oc1ccc(OCC2CCCCC2)cc1)C(=O)N(CCO)CCO` (stereo not drawn), the GI50 in [1], in experiment [2], in experiment [4], in experiment [6], in [7] and in [8] was > 100 µM (inactive) throughout. Further, the GI50 in experiment [9] is > 100 µM (inactive).
Regarding `CC(C)(C)OC(=O)NC(Cc1ccccc1)C(=S)N1CCCC1` (stereo not drawn), the GI50 in experiment [1] is > 100 µM (inactive); in [2] it was > 79.3 µM (inactive); in [3], > 100 µM (inactive); in experiment [4] it was > 100 µM (inactive); in experiment [5] it was > 100 µM (inactive); in [6], 65.5 µM (inactive). Also, the GI50 in experiment [7] is > 90.4 µM (inactive); in experiment [8], > 100 µM (inactive); in experiment [9], > 100 µM (inactive).
Turning to `NCCCNCCSP(=O)(O)O` [AMIFOSTINE], the GI50 in [1] is > 422 µM (inactive); in [2], > 750 µM (inactive); in [3], > 719 µM (inactive); in experiment [4], 514 µM (inactive); in experiment [6], > 750 µM (inactive); in experiment [8], > 750 µM (inactive). The GI50 in experiment [9] was > 750 µM (inactive).
